Laboratory results reported in the NIST ThermoML archive (doi:10.1016/j.fluid.2015.09.003).
Numbers after ± are expanded uncertainties. Blank lines part the entries; values can stand above or below the compound they belong to.

Test: activity coefficient (dimensionless); of the first substance listed, at infinite dilution; xn = mol fraction of the nth substance listed
Conditions: 101 kPa, Liquid, Chromatography, x1 = 0

SMILES: CC(=O)C(C)C [3-methyl-2-butanone] + CCOS(=O)(=O)[O-].CC[n+]1cccc(C)c1
activity coefficient (333.2 K): 4.51 ± 0.21
activity coefficient (343.15 K): 4.62 ± 0.21
activity coefficient (353.09 K): 4.73 ± 0.22
activity coefficient (363.06 K): 4.79 ± 0.22
activity coefficient (372.99 K): 4.95 ± 0.23

SMILES: CC(=O)CC(C)C [4-methylpentan-2-one] + CCOS(=O)(=O)[O-].CC[n+]1cccc(C)c1
activity coefficient (333.2 K): 6.97 ± 0.32
activity coefficient (343.15 K): 6.99 ± 0.32
activity coefficient (353.08 K): 7.03 ± 0.32
activity coefficient (363.06 K): 7.05 ± 0.32
activity coefficient (372.99 K): 7.12 ± 0.33

SMILES: CC(C)=O [acetone] + CCOS(=O)(=O)[O-].CC[n+]1cccc(C)c1
activity coefficient (323.24 K): 1.78 ± 0.08
activity coefficient (333.19 K): 1.8 ± 0.08
activity coefficient (343.16 K): 1.84 ± 0.08
activity coefficient (353.11 K): 1.88 ± 0.08
activity coefficient (363.08 K): 1.92 ± 0.08
activity coefficient (372.99 K): 1.98 ± 0.09

SMILES: CCC(C)O (stereo not given) [butan-2-ol] + CCOS(=O)(=O)[O-].CC[n+]1cccc(C)c1
activity coefficient (333.19 K): 1.27 ± 0.04
activity coefficient (343.14 K): 1.25 ± 0.04
activity coefficient (353.1 K): 1.24 ± 0.04
activity coefficient (363.05 K): 1.23 ± 0.04
activity coefficient (373 K): 1.23 ± 0.04

SMILES: CCC(C)=O [butanone] + CCOS(=O)(=O)[O-].CC[n+]1cccc(C)c1
activity coefficient (323.25 K): 2.7 ± 0.12
activity coefficient (333.2 K): 2.74 ± 0.12
activity coefficient (343.16 K): 2.78 ± 0.13
activity coefficient (353.1 K): 2.84 ± 0.13
activity coefficient (363.07 K): 2.88 ± 0.13
activity coefficient (372.99 K): 2.95 ± 0.13

SMILES: CO [methanol] + CCOS(=O)(=O)[O-].CC[n+]1cccc(C)c1
activity coefficient (323.26 K): 0.32 ± 0.04
activity coefficient (333.2 K): 0.33 ± 0.04
activity coefficient (343.15 K): 0.33 ± 0.04
activity coefficient (353.11 K): 0.33 ± 0.04
activity coefficient (363.07 K): 0.33 ± 0.04
activity coefficient (373 K): 0.33 ± 0.04

SMILES: CCCC(C)=O [pentan-2-one] + CCOS(=O)(=O)[O-].CC[n+]1cccc(C)c1
activity coefficient (333.2 K): 4.35 ± 0.2
activity coefficient (343.15 K): 4.38 ± 0.2
activity coefficient (353.12 K): 4.44 ± 0.2
activity coefficient (363.05 K): 4.46 ± 0.2
activity coefficient (372.99 K): 4.52 ± 0.21

SMILES: CC(C)O [propan-2-ol] + CCOS(=O)(=O)[O-].CC[n+]1cccc(C)c1
activity coefficient (323.24 K): 1 ± 0.03
activity coefficient (333.19 K): 0.97 ± 0.03
activity coefficient (343.14 K): 0.96 ± 0.03
activity coefficient (353.09 K): 0.94 ± 0.03
activity coefficient (363.06 K): 0.93 ± 0.03
activity coefficient (373 K): 0.92 ± 0.03

The remaining lines, values ahead:

activity coefficient (353.1 K): 1.13 ± 0.03
activity coefficient (363.06 K): 1.1 ± 0.03
activity coefficient (373 K): 1.08 ± 0.03
SMILES: CCCCO [butan-1-ol] + CCOS(=O)(=O)[O-].CC[n+]1cccc(C)c1

activity coefficient (333.18 K): 0.6 ± 0.03
activity coefficient (343.13 K): 0.59 ± 0.03
activity coefficient (353.1 K): 0.58 ± 0.03
activity coefficient (363.09 K): 0.58 ± 0.03
activity coefficient (373.01 K): 0.57 ± 0.03
SMILES: CCO [ethanol] + CCOS(=O)(=O)[O-].CC[n+]1cccc(C)c1

activity coefficient (353.09 K): 1.66 ± 0.07
activity coefficient (363.05 K): 1.59 ± 0.06
activity coefficient (373.01 K): 1.52 ± 0.06
SMILES: CCCCCO [pentan-1-ol] + CCOS(=O)(=O)[O-].CC[n+]1cccc(C)c1

activity coefficient (333.18 K): 0.81 ± 0.03
activity coefficient (343.13 K): 0.8 ± 0.03
activity coefficient (353.1 K): 0.8 ± 0.03
activity coefficient (363.06 K): 0.79 ± 0.03
activity coefficient (373 K): 0.78 ± 0.03
SMILES: CCCO [propan-1-ol] + CCOS(=O)(=O)[O-].CC[n+]1cccc(C)c1
